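Interpolation was linear, between the two tested concentrations surrounding the appropriate level; five concentrations were tested over 48 hours in 96-well plates. At the TGI there is no net growth.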
What was measured:
Experiment in all cases: NCI tumour cell line growth inhibition, 48 h
[1] = tested on: A498 renal
[2] = tested on: HT29 colon
[3] = tested on: CCRF-CEM leukemia
[4] = tested on: MALME-3M melanoma
[5] = tested on: SF-268 CNS
[6] = tested on: U251 CNS
[7] = tested on: SNB-75 CNS
[8] = tested on: HOP-92 NSCLC
[9] = tested on: KM12 colon
[10] = tested on: HL-60(TB) leukemia
[11] = tested on: K-562 leukemia
[12] = tested on: UO-31 renal
[13] = tested on: ACHN renal
[14] = tested on: MOLT-4 leukemia
[15] = tested on: RPMI-8226 leukemia
[16] = tested on: COLO 205 colon
[17] = tested on: UACC-62 melanoma
[18] = tested on: PC-3 prostate
[19] = tested on: HS 578T breast
[20] = tested on: MCF7 breast

Structure (SMILES) | TGI [1] | TGI [2] | TGI [3] | TGI [4] | TGI [5] | TGI [6] | TGI [7] | TGI [8] | TGI [9] | TGI [10] | TGI [11] | TGI [12] | TGI [13] | TGI [14] | TGI [15] | TGI [16] | TGI [17] | TGI [18] | TGI [19] | TGI [20]
COC1=CC(=O)c2c(cc3c(c2O)-c2c(OC)cc4cc5c(c(O)c4c2OC(=O)CC(C)(O)C3)C(=O)CC(C)(O)C5)C1=O (stereo not given) | 4.42 µM | 6.59 µM | 6.59 µM | 4.04 µM | 9.26 µM | 9.92 µM | 3.51 µM | 4.12 µM | 8.98 µM | 5.56 µM | 12.6 µM | 3.71 µM | 8.35 µM | 6.67 µM | 5.85 µM | 3.17 µM | 2.57 µM |  |  | 
CC(=O)OCC1OC(OC(C)=O)C(Nc2ncc(-c3ccc(C)cc3)s2)C(OC(C)=O)C1OC(C)=O (stereo not given) |  | 56.1 µM | 55 µM | 41.5 µM | 36.2 µM | 31.6 µM | 37.6 µM |  |  |  | 65.8 µM | 27.9 µM | 27.7 µM | 49.2 µM | 64.3 µM | 38 µM | 29 µM | 45.3 µM | 69.5 µM | 52.1 µM
CN1c2ccccc2C(=O)NC12CCNCC2 | > 100 µM | > 100 µM | > 100 µM | > 100 µM | > 100 µM | > 100 µM | > 100 µM | > 100 µM | > 100 µM | > 100 µM | > 100 µM | > 100 µM | > 100 µM | > 100 µM | > 100 µM | > 100 µM | > 100 µM |  | 40 µM | > 100 µM
CCCCCC#COC1CC(C)CC[C@@H]1C(C)C (stereo not given in full) |  | > 100 µM | 31.9 µM | > 100 µM | > 100 µM | > 100 µM | > 100 µM | > 100 µM | > 100 µM | 55 µM | > 100 µM | > 100 µM | > 100 µM |  | 69.7 µM | > 100 µM | > 100 µM |  |  | 
CN1CCN(c2ccc3[nH]c(C4=C(O)C(=O)[C@@H]5C(=C4O)N=C(CO)N5C)nc3n2)CC1 |  | > 100 µM | > 100 µM | > 100 µM | > 100 µM | > 100 µM | > 100 µM | > 100 µM | > 100 µM | > 100 µM | > 100 µM | > 100 µM | > 100 µM | > 100 µM | > 100 µM | > 100 µM | > 100 µM | > 100 µM | > 100 µM | 
CC(=O)Oc1ccc(Nn2c3ccccc3c3ccccc32)c(C)c1 |  |  | > 100 µM | > 100 µM | > 100 µM | > 100 µM |  | 64 µM | > 100 µM | 63.2 µM | > 100 µM | > 100 µM |  | 77.7 µM | 58.5 µM | > 100 µM | > 100 µM |  |  | 
C/C1=C/C[C@@H](/C(C)=C/c2csc(C)n2)OC(=O)C[C@H](O)C(C)(C)C(=O)[C@H](C)[C@@H](O)[C@@H](C)CCC1 |  | 0.335 µM | 0.894 µM |  |  | 0.169 µM |  | 0.302 µM | 0.196 µM |  |  | 0.181 µM | 0.323 µM | 0.394 µM | 0.217 µM |  | 0.247 µM | 0.193 µM | < 0.0001 µM | 0.231 µM
C=CC(=O)NCNC(=O)C=C | > 100 µM | > 100 µM | > 100 µM | > 100 µM | > 100 µM | > 100 µM | > 100 µM | > 100 µM | > 100 µM | > 100 µM | > 100 µM | > 100 µM | > 100 µM | > 100 µM | > 100 µM | > 100 µM | > 100 µM |  |  | 
Oc1c(Cl)c(Cl)c(O)c(CCNc2nccs2)c1Cl |  | 51.8 µM | > 100 µM | 54.9 µM | 36.1 µM | 66.1 µM | 42.3 µM | > 100 µM | 35.8 µM | > 100 µM | > 100 µM | 32.9 µM | 23.4 µM | 94.3 µM |  | 57.9 µM | 40.5 µM | 45.1 µM |  | 10.2 µM
O=P(CCOc1ccccc1OCCP(=O)(c1ccccc1)c1ccc2c(c1)OCCOCCOCCOCCO2)(c1ccccc1)c1ccc2c(c1)OCCOCCOCCOCCO2 (stereo not given) | > 100 µM | > 100 µM | > 100 µM | > 100 µM | > 100 µM | > 100 µM | > 100 µM | > 100 µM |  | > 100 µM | > 100 µM | > 100 µM | > 100 µM | > 100 µM | > 100 µM | > 100 µM | > 100 µM |  |  | 
COc1ccc(NS(=O)c2c(C)cc(C)cc2C)cc1 (stereo not given) |  | > 100 µM | > 100 µM | 49 µM | > 100 µM | > 100 µM |  |  | 98.8 µM | > 100 µM | > 100 µM | 61.1 µM | > 100 µM | > 100 µM | > 100 µM | > 100 µM | > 100 µM |  | > 100 µM | > 100 µM
CCCCCCCc1cscc1-c1cscc1Br | > 100 µM |  | 40.3 µM | > 100 µM | > 100 µM | > 100 µM | 87 µM |  | 80.7 µM |  | > 100 µM | > 100 µM | > 100 µM | 42.3 µM | 47 µM | 35.6 µM | > 100 µM | > 100 µM |  | > 100 µM
O=C1C=CC(=O)c2cc(Sc3ccccc3)c(=O)c(Sc3ccccc3)cc21 | > 100 µM | > 100 µM | 60.9 µM |  | > 100 µM | > 100 µM | > 100 µM | 50.5 µM | > 100 µM | 27.7 µM | 61.9 µM | > 100 µM | 36 µM | > 100 µM | > 100 µM | > 100 µM | 81.6 µM |  |  | 
C=C(CCC/C(C)=C/C=C/[C@H](C)CCCc1ccoc1)C[C@@H]1OC(=O)[C@H](C)[C@@H]1O | 17.2 µM | 50 µM | 33.6 µM | 19.8 µM | 18.1 µM | 24.3 µM | 17.3 µM | 18.5 µM | 23.3 µM |  | 28.6 µM | 15.6 µM | 18.4 µM | 29.5 µM | 30.2 µM | 27.4 µM | 16.6 µM | 17.2 µM |  | 33.9 µM
O=C(CCN1CCC(CCO)CC1)Nc1ccc2c(c1)C(=O)c1ccc(NC(=O)CCN3CCC(CCO)CC3)cc1C2=O | 92.8 µM | > 100 µM | 42.5 µM | 28.6 µM | 45.7 µM | 23.8 µM | 64.2 µM | > 100 µM | 10.5 µM | > 100 µM | 42.6 µM | > 100 µM | > 100 µM | 24.5 µM | 88.1 µM | 64.6 µM | 38.4 µM |  |  | 
COC(=O)CC(CNC(=O)OCc1ccccc1)OCc1ccc(OC)cc1 (stereo not given) | > 100 µM |  | > 100 µM | > 100 µM |  | > 100 µM | > 100 µM | > 100 µM | > 100 µM | > 100 µM | > 100 µM | > 100 µM | > 100 µM | > 100 µM | > 100 µM | > 100 µM | > 100 µM | > 100 µM |  | > 100 µM
Cc1ccc(C(=O)N2CCCCC2)cc1N=NN(C)C | > 100 µM | > 100 µM | > 100 µM | > 100 µM | > 100 µM |  | > 100 µM |  | > 100 µM | > 100 µM | > 100 µM | > 100 µM | > 100 µM | > 100 µM | > 100 µM | > 100 µM | > 100 µM |  |  | 
CCCCOC(=O)NC(Nc1ccc(S(=O)(=O)Nc2ncccn2)cc1)(C(F)(F)F)C(F)(F)F | > 100 µM | > 100 µM | > 100 µM | > 100 µM | > 100 µM |  |  | > 100 µM | > 100 µM | > 100 µM | > 100 µM | 43.6 µM | > 100 µM | > 100 µM | > 100 µM | > 100 µM | > 100 µM | > 100 µM | > 100 µM | 
O=C1CC(C(OCc2ccccc2)C(OCc2ccccc2)C(OCc2ccccc2)C(COCc2ccccc2)OCc2ccccc2)CC(=O)N1 (stereo not given) | > 100 µM | > 100 µM | > 100 µM | > 100 µM | > 100 µM | > 100 µM | > 100 µM | > 100 µM |  | > 100 µM | > 100 µM | > 100 µM | > 100 µM | > 100 µM | > 100 µM |  |  | > 100 µM | > 100 µM | 
CC1CCC2CC1NC(=O)CCOCCC(=O)NC2(C)C (stereo not given) |  | > 100 µM | > 100 µM |  | > 100 µM | > 100 µM | > 100 µM | > 100 µM | > 100 µM | > 100 µM | > 100 µM | > 100 µM |  | > 100 µM |  | > 100 µM | > 100 µM | > 100 µM |  | > 100 µM
CN(C)CCN(C)C(=O)C1CCCN1C(=O)OCc1ccccc1 (stereo not given) | > 100 µM | > 100 µM | 48.7 µM | > 100 µM | > 100 µM | > 100 µM | > 100 µM | > 100 µM |  | > 100 µM | > 100 µM | > 100 µM | > 100 µM | > 100 µM | > 100 µM | > 100 µM | > 100 µM |  |  | 
